From the supplement of paper PMC10307832

Assays:
Assay in all cases: relative viability (nuclei count vs DMSO), 5 days (fraction); higher = more cells survive
[1] = compound: CC1=C(C(=O)N2C=CSC2=N1)CCN3CCC(=C(C4=CC=CC=C4)C5=CC=C(C=C5)F)CC3 + CS(=O)(=O)CCNCc1ccc(-c2ccc3ncnc(Nc4ccc(OCc5cccc(F)c5)c(Cl)c4)c3c2)o1 [Lapatinib] (partner 2 µM)
Outline: (§1)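 The day after seeding in 1536-well plates, lung cancer cell lines were treated by pin tool with a single drug, or with a fixed anchor-drug dose together with five library-drug doses (not always all listed) in √10 steps. After 5 days, a combined fix-and-stain solution (final 0.05% Triton X-100, 1% formaldehyde, 1 ug/ml Hoechst) was added. Nuclei counted on 4× images gave relative viability as treated counts over vehicle counts, reported as the median of duplicate plates.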

[2] = compound: CC1=C(C(=O)N2C=CSC2=N1)CCN3CCC(=C(C4=CC=CC=C4)C5=CC=C(C=C5)F)CC3 + O=C(c1cc(Cc2n[nH]c(=O)c3ccccc23)ccc1F)N1CCN(C(=O)C2CC2)CC1 [Olaparib] (partner 8 µM)
Outline: as §1

[3] = compound: CC1=C(C(=O)N2C=CSC2=N1)CCN3CCC(=C(C4=CC=CC=C4)C5=CC=C(C=C5)F)CC3 + CCNC(=O)c1noc(-c2cc(C(C)C)c(O)cc2O)c1-c1ccc(CN2CCOCC2)cc1 [Luminespib] (partner 0.01 µM)
Outline: as §1

[4] = compound: CC1=C(C(=O)N2C=CSC2=N1)CCN3CCC(=C(C4=CC=CC=C4)C5=CC=C(C=C5)F)CC3 + Nc1ncn([C@H]2C[C@H](O)[C@@H](CO)O2)c(=O)n1 [Decitabine] (partner 2 µM)
Outline: as §1

Row | Cell Line | relative viability ([1]; first compound 0.08 µM) | relative viability ([1]; first compound 0.253 µM) | relative viability ([1]; first compound 0.8 µM) | relative viability ([1]; first compound 2.53 µM) | relative viability ([1]; first compound 8 µM) | relative viability ([2]; first compound 0.08 µM) | relative viability ([2]; first compound 0.253 µM) | relative viability ([2]; first compound 0.8 µM) | relative viability ([2]; first compound 2.53 µM) | relative viability ([2]; first compound 8 µM) | relative viability ([3]; first compound 0.08 µM) | relative viability ([3]; first compound 0.253 µM) | relative viability ([3]; first compound 0.8 µM) | relative viability ([3]; first compound 2.53 µM) | relative viability ([3]; first compound 8 µM) | relative viability ([4]; first compound 0.08 µM) | relative viability ([4]; first compound 0.253 µM) | relative viability ([4]; first compound 0.8 µM) | relative viability ([4]; first compound 2.53 µM) | relative viability ([4]; first compound 8 µM)
1 | LCLC-97TM1 | 0.7 | 1 | 1.08 | 1.03 | 0.677 | 0.414 | 0.342 | 0.425 | 0.452 | 0.344 | 0.709 | 0.831 | 0.789 | 0.938 | 0.514 | 0.234 | 0.252 | 0.216 | 0.253 | 0.181
2 | NCI-H2126 | 0.848 | 0.815 | 0.77 | 0.772 | 0.836 | 1.07 | 0.855 | 0.975 | 0.968 | 0.695 | 0.613 | 1.08 | 0.903 | 0.92 | 0.843 | 0.588 | 0.518 | 0.599 | 0.614 | 0.514
3 | NCI-H358 | 0.442 | 0.535 | 0.427 | 0.44 | 0.404 | 0.654 | 0.611 | 0.613 | 0.774 | 0.502 |  | 0.339 | 0.384 | 0.307 | 0.261 | 0.211 | 0.235 | 0.244 | 0.256 | 0.202
4 | NCI-H1734 | 1.08 | 0.866 | 0.984 | 1.33 | 0.71 | 0.554 | 0.526 | 0.624 | 0.767 | 0.396 | 0.202 | 0.174 | 0.205 | 0.166 | 0.183 | 0.481 | 0.469 | 0.507 | 0.504 | 0.496
5 | EKVX | 0.173 | 0.227 | 0.194 | 0.19 | 0.231 | 0.83 | 0.868 | 0.922 | 0.87 | 0.729 | 0.768 | 0.915 | 0.936 | 0.871 | 0.825 | 0.345 | 0.335 | 0.376 | 0.366 | 0.386
6 | NCI-H2085 | 0.805 | 0.774 | 0.763 | 0.986 | 0.72 | 0.805 | 0.776 | 0.807 | 0.783 | 0.735 | 0.361 | 0.362 | 0.458 | 0.392 | 0.323 | 0.553 | 0.563 | 0.504 | 0.573 | 0.559
7 | NCI-H1437 |  | 0.718 | 0.88 | 0.928 | 0.487 | 0.658 | 0.692 | 0.66 | 0.692 | 0.51 | 1.11 | 1.21 | 1.28 | 1.27 | 0.739 | 0.568 | 0.62 | 0.616 | 0.613 | 0.39
8 | NCI-H1355 | 1.04 | 0.981 | 1.03 | 0.997 | 0.885 | 0.749 | 0.815 | 0.793 | 0.732 | 0.529 | 0.767 | 0.735 | 0.809 | 0.656 | 0.675 | 0.38 | 0.382 | 0.369 | 0.354 | 0.368
9 | NCI-H596 | 1.05 | 1.17 | 1.06 | 0.989 | 1.06 | 0.67 | 0.646 | 0.677 | 0.695 | 0.708 | 1.05 | 0.978 | 1.23 | 1.08 | 0.655 | 0.908 | 0.939 | 1.06 | 1.01 | 0.761
10 | NCI-H322M | 0.581 | 0.613 | 0.612 | 0.554 | 0.611 | 0.74 | 0.801 | 0.678 | 0.813 | 0.738 | 0.768 | 0.899 | 0.928 | 0.888 | 0.81 | 0.719 | 0.781 | 0.688 | 0.814 | 0.767
11 | LC-2-ad | 1.01 | 1.08 | 0.88 | 1.2 | 0.861 | 0.87 | 0.79 | 0.65 | 0.875 | 0.574 | 1.27 | 1.36 | 1.12 | 1.19 | 0.918 | 0.866 | 0.903 | 0.875 | 0.794 | 0.642
12 | NCI-H661 | 0.428 | 0.469 | 0.538 | 0.39 | 0.355 | 0.797 | 0.73 | 0.8 | 0.783 | 0.463 | 1.03 | 0.984 | 0.928 | 1.04 | 0.598 | 0.528 | 0.623 | 0.55 | 0.528 | 0.387
13 | HOP-62 | 0.785 | 1.03 | 1.2 | 0.862 | 0.482 | 0.388 | 0.461 | 0.445 | 0.434 | 0.352 | 0.926 | 0.909 | 0.923 | 0.92 | 0.461 | 0.2 | 0.193 | 0.204 | 0.213 | 0.162
